“And” between values parts separate entries of the source, which are not always exact repeats. Equal entries are not always repeated.
Test: molar heat capacity at constant pressure
Conditions: 101.33 kPa, relaxation calorimetry

CCc1ncc[n-]1.CCc1ncc[n-]1.[Zn+2] [zinc(II) 2-ethylimidazolide]
molar heat capacity at constant pressure
Conditions	Crystal	Glass
20.19 K	17.81 J/K/mol	–
20.5 K	16.98 J/K/mol and 13.71 J/K/mol	–
20.51 K	–	17.11 J/K/mol
22.14 K	20.77 J/K/mol	–
22.42 K	16.31 J/K/mol	–
22.43 K	19.56 J/K/mol	19.76 J/K/mol
24.21 K	23.64 J/K/mol	–
24.49 K	22.58 J/K/mol and 19.45 J/K/mol	–
24.5 K	–	22.96 J/K/mol
25 K	24.79 J/K/mol and 20.1 J/K/mol and 23.3 J/K/mol	23.65 J/K/mol
26.43 K	26.91 J/K/mol	–
26.75 K	22.61 J/K/mol	–
26.76 K	25.8 J/K/mol	–
26.77 K	–	26.23 J/K/mol
28.91 K	30.23 J/K/mol	–
29.23 K	26.38 J/K/mol	–
29.24 K	29.64 J/K/mol	–
29.25 K	–	30.22 J/K/mol
30 K	31.85 J/K/mol and 27.7 J/K/mol and 30.79 J/K/mol	31.35 J/K/mol
31.62 K	34.05 J/K/mol	–
31.94 K	30.76 J/K/mol	34.68 J/K/mol
31.95 K	33.91 J/K/mol	–
34.58 K	38.37 J/K/mol	–
34.9 K	38.58 J/K/mol and 35.55 J/K/mol	39.27 J/K/mol
35 K	38.9 J/K/mol and 35.64 J/K/mol and 38.68 J/K/mol	39.25 J/K/mol
37.81 K	43 J/K/mol	–
38.12 K	40.86 J/K/mol	–
38.13 K	43.67 J/K/mol	43.79 J/K/mol
40 K	45.99 J/K/mol and 43.91 J/K/mol and 46.78 J/K/mol	46.98 J/K/mol
41.34 K	47.77 J/K/mol	–
41.65 K	46.75 J/K/mol	–
41.66 K	49.38 J/K/mol	49.23 J/K/mol
45 K	53.17 J/K/mol and 52.4 J/K/mol and 54.79 J/K/mol	54.36 J/K/mol
45.2 K	53.79 J/K/mol	–
45.5 K	53.14 J/K/mol	–
45.51 K	55.55 J/K/mol	–
45.52 K	–	55.25 J/K/mol
49.41 K	59.46 J/K/mol	–
49.71 K	60.01 J/K/mol	–
49.72 K	62.24 J/K/mol	–
49.73 K	–	61.57 J/K/mol
50 K	60.35 J/K/mol and 60.38 J/K/mol and 62.49 J/K/mol	61.68 J/K/mol
54.02 K	65.55 J/K/mol	–
54.31 K	67.15 J/K/mol	–
54.32 K	–	68.04 J/K/mol
54.33 K	68.86 J/K/mol	–
59.06 K	72.12 J/K/mol	–
59.34 K	74.94 J/K/mol	–
59.35 K	76.53 J/K/mol	75.28 J/K/mol
60 K	73.51 J/K/mol and 75.98 J/K/mol and 77.48 J/K/mol	76.22 J/K/mol
64.56 K	79.28 J/K/mol	–
64.85 K	83.06 J/K/mol	82.76 J/K/mol
64.86 K	84.44 J/K/mol	–
70 K	86.38 J/K/mol and 90.67 J/K/mol and 92.04 J/K/mol	89.94 J/K/mol
70.56 K	86.79 J/K/mol	–
70.85 K	91.72 J/K/mol	–
70.86 K	93.1 J/K/mol	90.79 J/K/mol
77.13 K	95.12 J/K/mol	–
77.42 K	100.73 J/K/mol	99.43 J/K/mol
77.43 K	102.26 J/K/mol	–
80 K	98.35 J/K/mol and 103.93 J/K/mol and 105.47 J/K/mol	102.42 J/K/mol
84.27 K	104 J/K/mol	–
84.6 K	109.85 J/K/mol	–
84.61 K	111.93 J/K/mol	108.29 J/K/mol
90 K	109.29 J/K/mol and 115.76 J/K/mol and 117.61 J/K/mol	113.66 J/K/mol
92.13 K	112.13 J/K/mol	–
92.46 K	118.78 J/K/mol	116.45 J/K/mol
92.47 K	120.62 J/K/mol	–
100 K	119.26 J/K/mol and 126.37 J/K/mol and 128.56 J/K/mol	123.8 J/K/mol
100.71 K	118.91 J/K/mol	–
101.03 K	127.27 J/K/mol	–
101.04 K	129.19 J/K/mol	124.6 J/K/mol
110 K	128.39 J/K/mol and 136.02 J/K/mol and 138.51 J/K/mol	133.08 J/K/mol
110.81 K	128.62 J/K/mol	–
111.15 K	136.95 J/K/mol	133.87 J/K/mol
111.16 K	139.25 J/K/mol	–
120 K	136.82 J/K/mol and 144.91 J/K/mol and 147.68 J/K/mol	141.69 J/K/mol
120.85 K	137.96 J/K/mol	–
121.21 K	146.05 J/K/mol	142.99 J/K/mol
121.23 K	149.18 J/K/mol	–
130 K	144.69 J/K/mol and 153.25 J/K/mol and 156.24 J/K/mol	149.79 J/K/mol
130.99 K	145.58 J/K/mol	–
131.26 K	–	150.5 J/K/mol
131.27 K	153.88 J/K/mol	–
131.28 K	157.12 J/K/mol	–
140 K	152.15 J/K/mol and 161.18 J/K/mol and 164.35 J/K/mol	157.54 J/K/mol
141.06 K	152.68 J/K/mol	–
141.38 K	–	158.36 J/K/mol
141.4 K	162.12 J/K/mol	–
141.42 K	164.9 J/K/mol	–
150 K	159.28 J/K/mol and 168.81 J/K/mol and 172.14 J/K/mol	165.02 J/K/mol
151.12 K	159.89 J/K/mol	–
151.43 K	–	166.3 J/K/mol
151.46 K	170.21 J/K/mol	–
151.47 K	173.16 J/K/mol	–
160 K	166.18 J/K/mol and 176.23 J/K/mol and 179.71 J/K/mol	172.32 J/K/mol
161.25 K	166.65 J/K/mol	–
161.56 K	–	173.36 J/K/mol
161.59 K	177.25 J/K/mol	–
161.61 K	180.61 J/K/mol	–
170 K	172.92 J/K/mol and 183.53 J/K/mol and 187.14 J/K/mol	179.51 J/K/mol
171.35 K	173.33 J/K/mol	–
171.6 K	–	180.21 J/K/mol
171.65 K	184.06 J/K/mol	–
171.67 K	188.03 J/K/mol	–
180 K	179.56 J/K/mol and 190.75 J/K/mol and 194.49 J/K/mol	186.63 J/K/mol
181.43 K	180.52 J/K/mol	–
181.69 K	–	187.69 J/K/mol
181.74 K	192.24 J/K/mol	–
181.77 K	196.44 J/K/mol	–
190 K	186.14 J/K/mol and 197.94 J/K/mol and 201.82 J/K/mol	193.72 J/K/mol
191.5 K	187.51 J/K/mol	–
191.77 K	–	195.38 J/K/mol
191.83 K	199.47 J/K/mol	–
191.86 K	203.36 J/K/mol	–
200 K	192.7 J/K/mol and 205.14 J/K/mol and 209.16 J/K/mol	200.81 J/K/mol
201.6 K	194.57 J/K/mol	–
201.91 K	–	202.56 J/K/mol
201.98 K	207.07 J/K/mol	–
202.01 K	211.73 J/K/mol	–
210 K	199.27 J/K/mol and 212.36 J/K/mol and 216.56 J/K/mol	207.92 J/K/mol
211.69 K	200.92 J/K/mol	–
211.98 K	–	209.72 J/K/mol
212.06 K	214.46 J/K/mol	–
212.09 K	218.97 J/K/mol	–
220 K	205.88 J/K/mol and 219.65 J/K/mol and 224.03 J/K/mol	215.06 J/K/mol
221.78 K	207.56 J/K/mol	–
221.99 K	–	216.74 J/K/mol
222.09 K	221.43 J/K/mol	–
222.12 K	225.68 J/K/mol	–
230 K	212.55 J/K/mol and 227.01 J/K/mol and 231.6 J/K/mol	222.25 J/K/mol
231.87 K	213.47 J/K/mol	–
232.05 K	–	223.82 J/K/mol
232.17 K	228.3 J/K/mol	–
232.21 K	233.03 J/K/mol	–
240 K	219.29 J/K/mol and 234.46 J/K/mol and 239.29 J/K/mol	229.49 J/K/mol
241.95 K	220.69 J/K/mol	–
242.11 K	–	230.23 J/K/mol
242.25 K	235.6 J/K/mol	–
242.28 K	240.2 J/K/mol	–
250 K	226.12 J/K/mol and 242.01 J/K/mol and 247.11 J/K/mol	236.79 J/K/mol
252.04 K	227.71 J/K/mol	–
252.26 K	–	238.21 J/K/mol
252.41 K	243.81 J/K/mol	–
252.44 K	248.76 J/K/mol	–
260 K	233.06 J/K/mol and 249.68 J/K/mol and 255.08 J/K/mol	244.16 J/K/mol
262.15 K	234.66 J/K/mol	–
262.32 K	–	245.55 J/K/mol
262.49 K	251.06 J/K/mol	–
262.53 K	256.2 J/K/mol	–
270 K	240.1 J/K/mol and 257.46 J/K/mol and 263.21 J/K/mol	251.6 J/K/mol
272.26 K	239.9 J/K/mol	–
272.38 K	–	253.18 J/K/mol
272.57 K	259.14 J/K/mol	–
272.61 K	264.93 J/K/mol	–
273.15 K	242.35 J/K/mol and 259.94 J/K/mol and 265.8 J/K/mol	253.96 J/K/mol
280 K	247.27 J/K/mol and 265.38 J/K/mol and 271.5 J/K/mol	259.1 J/K/mol
282.33 K	249.22 J/K/mol	–
282.34 K	–	261.68 J/K/mol
282.56 K	268.2 J/K/mol	–
282.6 K	274.43 J/K/mol	–
290 K	254.56 J/K/mol and 273.43 J/K/mol and 279.96 J/K/mol	266.68 J/K/mol
292.42 K	254.66 J/K/mol	–
292.48 K	–	268.78 J/K/mol
292.71 K	275.78 J/K/mol	–
292.77 K	282.45 J/K/mol	–
298.15 K	260.6 J/K/mol and 280.09 J/K/mol and 287 J/K/mol	272.9 J/K/mol
300 K	261.99 J/K/mol and 281.62 J/K/mol and 288.61 J/K/mol	274.31 J/K/mol
302.52 K	265.92 J/K/mol	–
302.54 K	–	275.95 J/K/mol
302.81 K	283.82 J/K/mol	–
302.88 K	291.43 J/K/mol	–
